Results from article PMC11098465, “A comparative analysis of peptide-delivered antisense antibiotics using diverse nucleotide mimics” (RNA, 2024).
Values joined by “and” are separate entries in the source; they are usually repeats but may differ in a detail not shown here. Identical values can stand only once.

Legend:
[1] = system: 10 nt long target mRNA (acpP, fully complementary 10mer RNA fragment); assay: Thermal UV melting curves of ASO:RNA duplexes; format: binding, Salmonella; details: unconjugated ASO and 10 nt target RNA, 2 µM each mixed 1:1; 100 mM NaCl, 10 mM phosphate, pH 7.0; UV 260 nm, 10-90°C at 0.5°C/min, five ramps; two-state fit
Method: Next, we assessed the melting temperatures of each ASO:RNA duplex across a temperature range of 10°C–90°C (Fig. 3A; Supplemental Fig. S3). In this experiment, we used a fully complementary 10mer RNA fragment instead of the 40 nt long target RNA sequence, because the longer target might form internal secondary structures that could interfere with the measurement of the melting temperature. […] This is in line with previous observations ([Freier and Altmann 1997]) and our EMSA results (Fig. 2). […] The melting temperature of RNA-F and RNA-MOE was around 56°C (Table 1).
Three hundred microliters of 10 nt long target mRNA (2 µM) was mixed with 300 µL of each of the ASOs (2 µM) in phosphate buffer (100 mM NaCl, 10 mM phosphate, pH 7.0). Thermal UV melting curves were recorded at Agilent Cary UV–Vis Multicell Peltier. Before measurement, the samples were overlaid with silicon oil to prevent evaporation during heating. Five temperature ramps with a heating/cooling rate of 0.5°C/min between 10°C and 90°C at 260 nm were collected. All the melting curves were plotted using OriginPro 2023, fit to a two-state transition model with upper and lower baselines to determine Tm as previously reported ([Dietzsch et al. 2022]).

[2] = system: Cy5 5′-labeled acpP target RNA (40 nt, −20 to +20); assay: Microscale thermophoresis (MST) binding affinity; design: species or system Salmonella; details: for EC50 of binding to target mRNA by MST (in words): unconjugated ASO; for EC50: read-out: mRNA-binding affinity (EC50)
Description: To further quantify the binding affinities of the ASOs to the target mRNA, we used MST, a sensitive technique that measures a temperature-induced change in the fluorescence of a substrate as a function of the concentration of a nonfluorescent ligand ([Moon et al. 2018]; [Zimmer et al. 2021]). MST allowed us to quantify target affinity by calculating EC50 values, the half maximal effective concentration of binding to target mRNA (Table 1; Supplemental Fig. S4). […] Both are known to adopt C3′-endo ribose pucker conformation, which enhances their binding affinity to target mRNA ([Julien et al. 2008]; [Pallan et al. 2012]).
For each binding experiment, Cy5 5′-labeled RNA (as described above) was diluted to 10 nM in buffer A (50 mM Tris-HCl pH 7.6, 250 mM KCl, 5 mM MgCl2, 1 mM DTT, 5% glycerol supplemented with 0.05% Tween 20). A series of 16 tubes with different ASO dilutions (500–0.015 nM) were prepared in buffer A. For measurements, each ASO dilution was mixed with one volume of labeled RNA, which led to a final concentration of 5 nM labeled RNA and 250–0.007 nM of ASOs. The reaction was mixed by pipetting and incubated for 30 min at RT in the dark. Capillary forces were used to load the samples into Monolith NT.115 Premium Capillaries; measurements were performed using a Monolith Pico instrument (NanoTemper Technologies Gmbh) at an ambient temperature of 25°C. Instrument parameters were adjusted to 5% LED power, medium MST power, and MST on-time of 2.5 s. An initial fluorescence scan was performed across the capillaries to determine sample quality, which was followed by 16 thermophoresis measurements. […] Data of two independent measurements were analyzed for the ΔFnorm value determined by the MO Affinity Analysis software (NanoTemper Technologies Gmbh). The fitting for EC50 values was done using the Hill equation within the MO Affinity Analysis software. Data are presented as the mean EC50 values of two independent experiments.

[3] = system: 5′ Cy5-labeled acpP target RNA (40 nt); assay: Electrophoretic mobility shift assay (EMSA); format: binding, Salmonella; design: key to mRNA hybridization (EMSA): +++: Effect strength is represented by additional (+) signs.; ++: Effect strength is represented by additional (+) signs.; Effect strength is represented by additional (+) signs; details: unconjugated ASO, ASO:RNA 0.3:1 to 2.5:1; for Shift of target mRNA in EMSA (in words): 30 min RT, 15% native PAA gel; for mRNA hybridization (EMSA): summary grade
Method: To compare the ability of the unconjugated ASOs to hybridize to the target transcript, we used electrophoretic mobility shift assays (EMSAs), thermal UV melting curves, and microscale thermophoresis (MST). We first conducted EMSAs using a 40 nt target RNA sequence (nt −20 to +20 relative to the acpP translational start codon), which was 5′-labeled with a Cy5 dye. Sequence-specific ASOs were added at defined ASO:RNA ratios, while water or a scrambled PNA (PNAscr) were used as negative controls. We performed these binding studies with unconjugated ASOs, because the KFF carrier peptide is cleaved during transport into the bacterial cytoplasm ([Yavari et al. 2021]). […] The DNA-PTO modification is known to reduce the binding affinity of the ASO to its target RNA ([Chan et al. 2006]), and a 10mer might be too short to mediate interactions under our experimental conditions. To test if an excess of unspecific RNA impacts target binding, we also included samples that contained 1 μg yeast tRNA.
The EMSA was performed with a Cy5 5′-labeled RNA (purchased from Eurofins) encompassing the sequence spanning nucleotides −20 to +20 of acpP relative to the translation start codon. For annealing, TM buffer (10 mM Tris-HCl, 50 mM MgCl2) was used. First, 20 µM RNA was denatured by incubation at 95°C for 5 min followed by placement on ice. Then 1 µL of RNA (spiked with or without 1 µL of yeast tRNA [Ambion at a concentration of 10 mg/mL]) was added to PCR tubes containing 8 µL of water. To this, 1 µL of ASOs at the indicated concentrations (6.25–50 µM) was added to adjust ASO:RNA ratios of 0.3:1 to 2.5:1. As negative control, water was added instead of ASO, while a PNAscr sequence served as sequence-unspecific negative control (Fig. 2; Supplemental Fig. S2). These mixtures were incubated for 30 min at room temperature (RT), followed by the addition of 10 µL 2× gel loading (GL) buffer for subsequent loading on native 15% PAA RNA gel without urea (20 µL/sample; 6 µL of a 50 bp DNA marker + 14 µL 1× GL). The gel was run at 100–120 V for 2–3 h, concomitantly stained with SYBR gold (Thermo Fisher Scientific) for 15 min and imaged on Geldoc (Isogen Life Science B.V.).

[4] = unconjugated ASO 250-0.007 nM, 5 nM Cy5 RNA, 50 mM Tris-HCl pH 7.6, 250 mM KCl, 5 mM MgCl2, 30 min RT, 25°C, Hill fit, mean ± SD, two independent experiments

Substance	Tm of ASO:mRNA complexes [1]	mRNA-binding affinity (EC50) [2, 4]	Shift of target mRNA in EMSA (in words) [3]	EC50 of binding to target mRNA by MST (in words) [2]	EC50 [2, 4] [nM]	mRNA hybridization (EMSA) [3]
DNA-PTO: phosphorothioate-modified DNA 10mer ASO, sequence CTCATACTCT, targeting acpP −5 to +5 (DNA, all phosphorothioate, methylation of C not given here)	25.8 °C and 25.8 ± 0.7 °C	Could not be determined	did not interact with the target mRNA at any of the concentrations tested			
LNA: 2′–4′-locked RNA 10mer ASO, sequence CTCATACTCT, targeting acpP −5 to +5 (all LNA, backbone and methylation of C not given here)	87.4 °C and 87.4 ± 2 °C		concentration-dependent shift of the target mRNA, starting at a 0.3:1 ratio of ASO:RNA	upper picomolar range	0.3 ± 0.1	+++
PMO: phosphorodiamidate morpholino 10mer ASO, sequence CTCATACTCT, targeting acpP −5 to +5 (all phosphorodiamidate morpholino (PMO))	41.8 °C and 41.8 ± 0.6 °C		limited binding even at 2.5× excess	lower-mid nanomolar range	5.9 ± 2.7	+
PNA: peptide nucleic acid 10mer ASO, sequence CTCATACTCT, targeting acpP −5 to +5 (all peptide nucleic acid (PNA))	44.3 °C and 44.3 ± 1.1 °C		concentration-dependent shift of the target mRNA, starting at a 0.3:1 ratio of ASO:RNA	upper picomolar range	0.4 ± 0.4	+++
RNA-F: 2′-fluorinated RNA 10mer ASO, sequence CTCATACTCT, targeting acpP −5 to +5 (all 2'-fluoro, backbone and T or U not given here)			concentration-dependent shift of the target mRNA, starting at a 0.3:1 ratio of ASO:RNA	lower-mid nanomolar range	72.8 ± 36.2	++
RNA-MOE: 2′-methoxyethylated RNA 10mer ASO, sequence CTCATACTCT, targeting acpP −5 to +5 (all 2'-MOE, backbone and methylation of C not given here)			concentration-dependent shift of the target mRNA, starting at a 0.3:1 ratio of ASO:RNA	upper picomolar range	0.3 ± 0.2	++
RNA-OMe: 2′-methylated RNA 10mer ASO, sequence CTCATACTCT, targeting acpP −5 to +5 (all 2'-O-methyl, backbone and T or U not given here)	48.3 °C and 48.3 ± 0.8 °C		did not interact with the target mRNA at any of the concentrations tested	lower-mid nanomolar range	4 ± 0.2	
